One assay deals with T1, NS3/4A H77C strain (Hepatitis C virus genotype 1a, UniProt P27958, C1454S).
T1 construct: DNA encoding the recombinant HCV NS3/4A protease complex (amino acid 1027 to 1711) for these strains; inferred from pET21b vector and Ni-NTA purification; made in house; host or cells: E. coli BL21 (DE3)
The experiment in a line: Recombinant HCV NS3/4A protease complex FRET peptide assay, H77C strain. The format is biochemical, HCV genotype 1a. From the text:
The purpose of this in vitro assay was to measure the inhibition of HCV NS3 protease complexes, derived from the BMS, H77C or J416S strains, as described below, by compounds of the present invention. This assay provides an indication of how effective compounds of the present invention would be in inhibiting HCV […] proteolytic activity.
Serum from an HCV-infected patient was obtained from Dr. T. Wright, San Francisco Hospital. An engineered full-length cDNA template of the HCV genome (BMS strain) was constructed from DNA fragments obtained by reverse transcription-PCR (RT-PCR) of serum RNA and using primers selected on the basis of homology between other genotype 1a strains. From the determination of the entire genome sequence, a genotype 1a was assigned to the HCV isolate according to the classification of Simmonds et al. (See P Simmonds, K A Rose, S Graham, S W Chan, F McOmish, B C Dow, E A Follett, P L Yap and H Marsden, J. Clin. Microbiol., 31(6), 1493-1503 (1993)). […] The infectious clones, H77C (1a genotype) and J4L6S (1b genotype) were obtained from R. Purcell (NIH) and the sequences are published in genebank (AAB67036, see Yanagi, M., Purcell, R. H., Emerson, S. U. and Bukh, J. Proc. Natl. Acad. Sci. U.S.A. 94(16),8738-8743 (1997); AF054247, see Yanagi, M., St Claire, M., Shapiro, M., Emerson, S. U., Purcell, R. H. and Bukh, J, Virology 244 (1), 161-172. (1998)). […]

Assay [1] deals with T2, bovine pancreatic α-chymotrypsin (Bos taurus, UniProt P00766).
T2 construct: from tissue; host or cells: pancreas (from the enzyme's name only)
The experiment in a line: Specificity assay, bovine pancreatic α-chymotrypsin. The class given is biochemical. As to the method: The specificities of compounds of the present invention were determined against a variety of serine proteases: human leukocyte elastase, porcine pancreatic elastase and bovine pancreatic α-chymotrypsin and one cysteine protease: human liver cathepsin B. In all cases a 96-well plate format protocol using calorimetric […] (pNA) substrate specific for each enzyme was used as described previously (Patent WO 00/09543) with some modifications.
Each assay included a 1 h enzyme-inhibitor pre-incubation at RT followed by addition of substrate and hydrolysis to ˜30% conversion as measured on a Spectramax Pro microplate reader. Compound concentrations varied from 100 to 0.4 μM depending on their potency.
The final conditions and protocol for each assay was as reported previously (Patent WO 00/09543) with the inclusion of an additional assay: • 50 mM Tris-HCl pH 8, 0.5M Na2SO4, 50 mM NaCl, 0.1 mM EDTA, 3% DMSO, 0.01% Tween-20 with 133 μM succ-AAA-PNA and 20 nM Elastase
The percentage of inhibition was calculated using the formula: [1−((UVinh−UVblank)/(UVctl−UVblank))]×100

T1 sequence (P27958 1027-1657 C1454S): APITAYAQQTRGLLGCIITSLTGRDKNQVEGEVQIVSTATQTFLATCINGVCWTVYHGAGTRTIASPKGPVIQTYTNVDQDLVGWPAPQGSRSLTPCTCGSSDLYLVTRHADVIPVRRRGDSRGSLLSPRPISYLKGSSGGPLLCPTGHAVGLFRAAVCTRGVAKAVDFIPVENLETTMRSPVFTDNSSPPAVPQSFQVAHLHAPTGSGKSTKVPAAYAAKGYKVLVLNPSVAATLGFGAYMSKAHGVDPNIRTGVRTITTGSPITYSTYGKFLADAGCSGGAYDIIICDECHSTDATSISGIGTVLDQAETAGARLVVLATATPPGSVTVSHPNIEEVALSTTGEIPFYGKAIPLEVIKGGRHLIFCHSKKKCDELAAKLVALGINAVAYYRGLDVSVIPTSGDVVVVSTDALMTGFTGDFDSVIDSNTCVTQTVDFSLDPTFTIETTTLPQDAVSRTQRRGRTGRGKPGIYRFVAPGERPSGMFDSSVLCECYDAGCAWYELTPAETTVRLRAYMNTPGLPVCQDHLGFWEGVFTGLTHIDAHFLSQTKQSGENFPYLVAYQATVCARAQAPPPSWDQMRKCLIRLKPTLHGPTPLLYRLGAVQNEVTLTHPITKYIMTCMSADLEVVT
T1 sequence (P27958 1658-1711 partner, looked up, stated change not applied): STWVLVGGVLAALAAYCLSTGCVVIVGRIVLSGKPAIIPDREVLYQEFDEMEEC

`C=CC1C[C@]1(NC(=O)[C@@H]1C[C@@H](Oc2cc(-c3ccccc3)nc3cc(OC)ccc23)CN1C(=O)C(NC(=O)OC(C)(C)C)C(C)(C)C)C(=O)NS(=O)(=O)c1ccc(NC(C)=O)cc1` (some centres unmarked) [Compound 58]: the IC50 on NS3/4A H77C strain is 10 nM; in assay [1], above 100000 nM.

The record behind these values is patent US6872805B2 (Bristol-Myers Squibb Company, priority 2000, dated 2005).
